PubChem BioAssay (NCI)
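Cultured in 96-well plates, cells were exposed to test compound for 48 hours across five concentrations. At the GI50, growth is halved. TGI denotes the concentration required for complete inhibition of growth.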

What was measured:
Assay in all cases: DTP human tumour cell line panel, 48 h
OVCAR-4 ovarian = tested on: OVCAR-4 ovarian
M14 melanoma = tested on: M14 melanoma
PC-3 prostate = tested on: PC-3 prostate
SK-MEL-5 melanoma = tested on: SK-MEL-5 melanoma
RXF 393 renal = tested on: RXF 393 renal
RPMI-8226 leukemia = tested on: RPMI-8226 leukemia
NCI-H23 lung = tested on: NCI-H23 lung
UO-31 renal = tested on: UO-31 renal
T-47D breast = tested on: T-47D breast
SK-OV-3 ovarian = tested on: SK-OV-3 ovarian
OVCAR-5 ovarian = tested on: OVCAR-5 ovarian
IGROV1 ovarian = tested on: IGROV1 ovarian
A498 renal = tested on: A498 renal
HCC-2998 colon = tested on: HCC-2998 colon
UACC-62 melanoma = tested on: UACC-62 melanoma
OVCAR-3 ovarian = tested on: OVCAR-3 ovarian
TK-10 renal = tested on: TK-10 renal
MOLT-4 leukemia = tested on: MOLT-4 leukemia
A549 NSCLC = tested on: A549 NSCLC
HCT-116 colon = tested on: HCT-116 colon
SN12C renal = tested on: SN12C renal
EKVX NSCLC = tested on: EKVX NSCLC
MALME-3M melanoma = tested on: MALME-3M melanoma
CAKI-1 renal = tested on: CAKI-1 renal
MCF7 breast = tested on: MCF7 breast
NCI/ADR-RES ovarian = tested on: NCI/ADR-RES ovarian
SK-MEL-2 melanoma = tested on: SK-MEL-2 melanoma
HOP-62 NSCLC = tested on: HOP-62 NSCLC
HCT-15 colon = tested on: HCT-15 colon
ACHN renal = tested on: ACHN renal
OVCAR-8 ovarian = tested on: OVCAR-8 ovarian
NCI-H522 lung = tested on: NCI-H522 lung
DU-145 prostate = tested on: DU-145 prostate
UACC-257 melanoma = tested on: UACC-257 melanoma
HL-60(TB) leukemia = tested on: HL-60(TB) leukemia
MDA-MB-435 = tested on: MDA-MB-435
HOP-92 NSCLC = tested on: HOP-92 NSCLC
HT29 colon = tested on: HT29 colon
U251 CNS = tested on: U251 CNS
SF-268 CNS = tested on: SF-268 CNS
BT-549 breast = tested on: BT-549 breast
SNB-75 CNS = tested on: SNB-75 CNS
SW-620 colon = tested on: SW-620 colon
LOX IMVI melanoma = tested on: LOX IMVI melanoma
SF-539 CNS = tested on: SF-539 CNS
MDA-MB-231 breast = tested on: MDA-MB-231 breast
SF-295 CNS = tested on: SF-295 CNS
KM12 colon = tested on: KM12 colon
786-0 renal = tested on: 786-0 renal
NCI-H460 lung = tested on: NCI-H460 lung
K-562 leukemia = tested on: K-562 leukemia
CCRF-CEM leukemia = tested on: CCRF-CEM leukemia

**Q.** How did the GI50 (OVCAR-4 ovarian) turn out when `N#CC1=C(N)OC2=C(COc3ccc(F)cc32)C1c1ccc(Cl)cc1` (centres undefined) was run?
**A.** 78.3 µM

**Q.** And the TGI (OVCAR-4 ovarian)?
**A.** > 100 µM

**Q.** What about the GI50 (M14 melanoma) of the same compound?
**A.** 44.6 µM

**Q.** What about the TGI (M14 melanoma) of the same compound?
**A.** > 100 µM

**Q.** And the GI50 (PC-3 prostate)?
**A.** 32.3 µM

**Q.** What about the TGI (PC-3 prostate) of the same compound?
**A.** > 100 µM

**Q.** And the GI50 (SK-MEL-5 melanoma)?
**A.** 20.4 µM

**Q.** What about the TGI (SK-MEL-5 melanoma) of the same compound?
**A.** 58.7 µM

**Q.** And the GI50 (RXF 393 renal)?
**A.** > 100 µM

**Q.** What about the TGI (RXF 393 renal) of the same compound?
**A.** > 100 µM

**Q.** What about the GI50 (RPMI-8226 leukemia) of the same compound?
**A.** 26.6 µM

**Q.** What about the TGI (RPMI-8226 leukemia) of the same compound?
**A.** > 100 µM

**Q.** What about the GI50 (NCI-H23 lung) of the same compound?
**A.** 29.6 µM

**Q.** What about the TGI (NCI-H23 lung) of the same compound?
**A.** 93.6 µM

**Q.** What about the GI50 (UO-31 renal) of the same compound?
**A.** 48.5 µM

**Q.** What about the TGI (UO-31 renal) of the same compound?
**A.** > 100 µM

**Q.** And the GI50 (T-47D breast)?
**A.** > 100 µM

**Q.** And the TGI (T-47D breast)?
**A.** > 100 µM

**Q.** What about the GI50 (SK-OV-3 ovarian) of the same compound?
**A.** 53.1 µM

**Q.** What about the TGI (SK-OV-3 ovarian) of the same compound?
**A.** > 100 µM

**Q.** And the GI50 (OVCAR-5 ovarian)?
**A.** 41.6 µM

**Q.** What about the TGI (OVCAR-5 ovarian) of the same compound?
**A.** > 100 µM

**Q.** What about the GI50 (IGROV1 ovarian) of the same compound?
**A.** 70.3 µM

**Q.** And the TGI (IGROV1 ovarian)?
**A.** > 100 µM

**Q.** What about the GI50 (A498 renal) of the same compound?
**A.** 22.2 µM

**Q.** What about the TGI (A498 renal) of the same compound?
**A.** 67.7 µM

**Q.** And the GI50 (HCC-2998 colon)?
**A.** 25.6 µM

**Q.** And the TGI (HCC-2998 colon)?
**A.** 60.2 µM

**Q.** What about the GI50 (UACC-62 melanoma) of the same compound?
**A.** 18.5 µM

**Q.** What about the TGI (UACC-62 melanoma) of the same compound?
**A.** 42.6 µM

**Q.** And the GI50 (OVCAR-3 ovarian)?
**A.** 17.2 µM

**Q.** And the TGI (OVCAR-3 ovarian)?
**A.** 42.3 µM

**Q.** What about the GI50 (TK-10 renal) of the same compound?
**A.** 43.1 µM

**Q.** And the TGI (TK-10 renal)?
**A.** > 100 µM

**Q.** And the GI50 (MOLT-4 leukemia)?
**A.** 44.7 µM

**Q.** And the TGI (MOLT-4 leukemia)?
**A.** > 100 µM

**Q.** And the GI50 (A549 NSCLC)?
**A.** 93.4 µM

**Q.** And the TGI (A549 NSCLC)?
**A.** > 100 µM

**Q.** What about the GI50 (HCT-116 colon) of the same compound?
**A.** 36.3 µM

**Q.** And the TGI (HCT-116 colon)?
**A.** > 100 µM

**Q.** What about the GI50 (SN12C renal) of the same compound?
**A.** 28.3 µM

**Q.** And the TGI (SN12C renal)?
**A.** > 100 µM

**Q.** And the GI50 (EKVX NSCLC)?
**A.** 37.3 µM

**Q.** And the TGI (EKVX NSCLC)?
**A.** > 100 µM

**Q.** What about the GI50 (MALME-3M melanoma) of the same compound?
**A.** 47.9 µM

**Q.** What about the TGI (MALME-3M melanoma) of the same compound?
**A.** 94.9 µM

**Q.** And the GI50 (CAKI-1 renal)?
**A.** 30.1 µM

**Q.** What about the TGI (CAKI-1 renal) of the same compound?
**A.** > 100 µM

**Q.** What about the GI50 (MCF7 breast) of the same compound?
**A.** 30.3 µM

**Q.** And the TGI (MCF7 breast)?
**A.** > 100 µM

**Q.** What about the GI50 (NCI/ADR-RES ovarian) of the same compound?
**A.** 19.1 µM

**Q.** And the TGI (NCI/ADR-RES ovarian)?
**A.** 48.8 µM

**Q.** What about the GI50 (SK-MEL-2 melanoma) of the same compound?
**A.** 35.1 µM

**Q.** And the TGI (SK-MEL-2 melanoma)?
**A.** > 100 µM

**Q.** And the GI50 (HOP-62 NSCLC)?
**A.** 38.3 µM

**Q.** What about the TGI (HOP-62 NSCLC) of the same compound?
**A.** > 100 µM

**Q.** And the GI50 (HCT-15 colon)?
**A.** 34.4 µM

**Q.** And the TGI (HCT-15 colon)?
**A.** > 100 µM

**Q.** What about the GI50 (ACHN renal) of the same compound?
**A.** 22.9 µM

**Q.** And the TGI (ACHN renal)?
**A.** 93.5 µM

**Q.** And the GI50 (OVCAR-8 ovarian)?
**A.** 51.1 µM

**Q.** What about the TGI (OVCAR-8 ovarian) of the same compound?
**A.** > 100 µM

**Q.** And the GI50 (NCI-H522 lung)?
**A.** 38.2 µM

**Q.** And the TGI (NCI-H522 lung)?
**A.** 93.6 µM

**Q.** And the GI50 (DU-145 prostate)?
**A.** 44.1 µM

**Q.** And the TGI (DU-145 prostate)?
**A.** > 100 µM

**Q.** And the GI50 (UACC-257 melanoma)?
**A.** 41.6 µM

**Q.** What about the TGI (UACC-257 melanoma) of the same compound?
**A.** > 100 µM

**Q.** And the GI50 (HL-60(TB) leukemia)?
**A.** 33.5 µM

**Q.** What about the TGI (HL-60(TB) leukemia) of the same compound?
**A.** 86 µM

**Q.** And the GI50 (MDA-MB-435)?
**A.** 28.5 µM

**Q.** What about the TGI (MDA-MB-435) of the same compound?
**A.** > 100 µM

**Q.** What about the GI50 (HOP-92 NSCLC) of the same compound?
**A.** 30.5 µM

**Q.** What about the TGI (HOP-92 NSCLC) of the same compound?
**A.** > 100 µM

**Q.** What about the GI50 (HT29 colon) of the same compound?
**A.** 50.4 µM

**Q.** And the TGI (HT29 colon)?
**A.** > 100 µM

**Q.** What about the GI50 (U251 CNS) of the same compound?
**A.** 32.6 µM

**Q.** And the TGI (U251 CNS)?
**A.** > 100 µM

**Q.** And the GI50 (SF-268 CNS)?
**A.** 42.8 µM

**Q.** And the TGI (SF-268 CNS)?
**A.** > 100 µM

**Q.** And the GI50 (BT-549 breast)?
**A.** 27.3 µM

**Q.** And the TGI (BT-549 breast)?
**A.** 73.5 µM

**Q.** What about the GI50 (SNB-75 CNS) of the same compound?
**A.** > 100 µM

**Q.** What about the TGI (SNB-75 CNS) of the same compound?
**A.** > 100 µM

**Q.** What about the GI50 (SW-620 colon) of the same compound?
**A.** 53.3 µM

**Q.** And the TGI (SW-620 colon)?
**A.** > 100 µM

**Q.** And the GI50 (LOX IMVI melanoma)?
**A.** 35.1 µM

**Q.** What about the TGI (LOX IMVI melanoma) of the same compound?
**A.** > 100 µM

**Q.** And the GI50 (SF-539 CNS)?
**A.** 29.5 µM

**Q.** And the TGI (SF-539 CNS)?
**A.** 81.6 µM

**Q.** And the GI50 (MDA-MB-231 breast)?
**A.** 26.1 µM

**Q.** And the TGI (MDA-MB-231 breast)?
**A.** 88 µM

**Q.** And the GI50 (SF-295 CNS)?
**A.** 19.6 µM

**Q.** What about the TGI (SF-295 CNS) of the same compound?
**A.** 78.3 µM

**Q.** And the GI50 (KM12 colon)?
**A.** 33.4 µM

**Q.** And the TGI (KM12 colon)?
**A.** > 100 µM

**Q.** What about the GI50 (786-0 renal) of the same compound?
**A.** 32.3 µM

**Q.** And the TGI (786-0 renal)?
**A.** > 100 µM

**Q.** And the GI50 (NCI-H460 lung)?
**A.** 27.8 µM

**Q.** And the TGI (NCI-H460 lung)?
**A.** > 100 µM

**Q.** And the GI50 (K-562 leukemia)?
**A.** 27.3 µM

**Q.** What about the TGI (K-562 leukemia) of the same compound?
**A.** 82 µM

**Q.** And the GI50 (CCRF-CEM leukemia)?
**A.** 55.5 µM

**Q.** What about the TGI (CCRF-CEM leukemia) of the same compound?
**A.** > 100 µM
